Laboratory results reported in publication PMC5786306, “An AKAP-Lbc-RhoA interaction inhibitor promotes the translocation of aquaporin-2 to the plasma membrane of renal collecting duct principal cells” (PLoS ONE, 2018).

Test system: Gα12- or Gαq-mediated RhoA activation in HEK293 cells
Test: Rhotekin pulldown of active RhoA in HEK293 cells
Format: cell-based, human
Details: 50 μM
Protocol: (A) Full length AKAP-Lbc (AKAP13) and the indicated GEFs were transiently expressed in HEK293 cells. […] (B) Scaff10 inhibits Gα12- but not Gαq-mediated RhoA activation. The indicated Gα12 and Gαq-mutants were transiently co-expressed with AKAP-Lbc and p63RhoGEF in HEK293 cells as indicated. The cells were left untreated or incubated with Scaff10 (50 μM). The fraction of active RhoA was determined using Rhotekin pulldown assays. Shown is one representative out of three experiments. All GEF constructs were in pCMV3a and Myc-tagged (30 ng per transfection). Expression of AKAP-Lbc, LARG and PDZ-RhoGEF is shown in Fig 7 of the main manuscript. […] Lower panel: Corresponding values of fluorescence to upper panel. […] Lower panel: Corresponding values of fluorescence to upper panel. (B) F norm = normalised fluorescence (fluoresence steady state/fluorescence initial state) indicated in ‰. […] The viability of the indicated cells was determined using a CellTiter-Glo®Luminescent Cell Viability Assay (Promega, Wisconsin, USA) according to the manufacturer's instructions. The assay is based on the quantification of ATP as an indicator of metabolically active cells. […] Viability was assessed after 1 and 24 h incubation with Scaff10-8 in the indicated concentrations. An equal volume of CellTiter-Glo Reagent was added, plates were shaken and luminescence monitored over time with the plates held at 22°C. […]

## COc1ccc(-c2coc3cc4oc(=O)c(C)c(C)c4cc23)cc1 [Scaff10, 3-(4-Methoxyphenyl)-5,6-dimethyl-furo[3,2-g]chromen-7-one]
  RhoA activation by constitutively active G12 (G12QL) with AKAP-Lbc: abolished this activation
  RhoA activation through constitutively active Gq (GqRC): did not affect
